Laboratory results as given in patent US9115101B2 (Genentech, Inc., priority 2012, dated 2015).
pIC50: −log10 of the molar value.

These compounds were tested against T1, RORc ligand binding domain (Homo sapiens, UniProt P51449) (assay: In Vitro RORc Ligand Binding Assay (25-[3H]hydroxycholesterol radioligand filtration)). Details: In Vitro RORc Ligand Binding Assay; Table 4; read-out: RORc IC50.
T1 construct: host or cells: E. coli
T1 sequence (P51449 269-508 limits assumed): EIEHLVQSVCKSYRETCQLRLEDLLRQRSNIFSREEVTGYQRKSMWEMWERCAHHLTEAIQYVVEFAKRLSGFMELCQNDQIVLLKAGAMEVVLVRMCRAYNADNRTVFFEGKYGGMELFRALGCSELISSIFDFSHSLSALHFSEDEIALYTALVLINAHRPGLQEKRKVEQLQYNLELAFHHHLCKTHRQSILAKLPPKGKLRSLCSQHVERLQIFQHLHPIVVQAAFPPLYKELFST

SMILES	pIC50
COc1ccccc1C1CC[C@H](C)N(Cc2ccc(N3CCN(C(C)=O)CC3)cc2F)S1(=O)=O (single isomer, unassigned) [Example 223]	6.87
COc1ccccc1C1CC[C@H](C)N(Cc2ccc(N3CCN(C(C)=O)CC3)cc2F)S1(=O)=O (single isomer, unassigned) [Example 224]	7.21
C[C@H]1CCC(c2ccccc2)S(=O)(=O)N1Cc1ccc(N2CCC(c3nnc[nH]3)CC2)cc1F (single isomer, unassigned) [Example 225]	6.82
C[C@H]1CCC(c2ccccc2)S(=O)(=O)N1Cc1ccc(N2CCC(c3nnc[nH]3)CC2)cc1F (single isomer, unassigned) [Example 226]	6.55
CC[C@H]1CCC(c2ccccc2)S(=O)(=O)N1Cc1ccc(N2CCC(n3cnnc3)CC2)cc1F (single isomer, unassigned) [Example 228]	7.68
CC[C@H]1CCC(c2ccccc2)S(=O)(=O)N1Cc1ccc(N2CCC(n3cnnc3)CC2)cc1F (single isomer, unassigned) [Example 229]	6.77
CC[C@H]1CCC(c2ccccc2)S(=O)(=O)N1Cc1ccc(NC2CCN(S(C)(=O)=O)CC2)cc1F (single isomer, unassigned) [Example 239]	8.52
CC[C@H]1CCC(c2ccccc2)S(=O)(=O)N1Cc1ccc(NC2CCN(S(C)(=O)=O)CC2)cc1F (single isomer, unassigned) [Example 240]	8.40
C[C@H]1CCC(c2ccccc2)S(=O)(=O)N1Cc1ccc(N2CCC(c3cn[nH]c3)CC2)cc1F (single isomer, unassigned) [Example 242]	8.40
C[C@H]1CCC(c2ccccc2)S(=O)(=O)N1Cc1ccc(N2CCC(c3cn[nH]c3)CC2)cc1F (single isomer, unassigned) [Example 243]	8.52
C[C@H]1CCC(c2ccccc2)S(=O)(=O)N1Cc1ccc(N2CCC(n3ncnn3)CC2)cc1F (single isomer, unassigned) [Example 244]	7.62
CC(=O)N1CCN(c2ccc(CN3[C@@H](C(C)C)CCC(c4ccccc4)S3(=O)=O)c(F)c2)CC1 (single isomer, unassigned) [Example 246]	7.52
CC(=O)N1CCN(c2ccc(CN3[C@@H](C(C)C)CCC(c4ccccc4)S3(=O)=O)c(F)c2)CC1 (single isomer, unassigned) [Example 247]	7.54
CC(=O)N1CCN(c2ccc(CN3C4CCCC4CC(c4ccccc4)S3(=O)=O)c(F)c2)CC1 (single isomer, unassigned) [Example 248, 1-(4-(4-((2,2-dioxido-3-phenylhexahydro-cyclopenta[c][1,2]thiazin-1(3H)-yl)methyl)-3-fluorophenyl)piper-azin-1-yl)ethanone]	8.15
CS(=O)(=O)N1CCC(Nc2ccc(CN3CC4(CC4)CC(c4ccccc4)S3(=O)=O)c(F)c2)CC1 (single isomer, unassigned) [Example 249, 5-(2-fluoro-4-((1-(methylsulfonyl)piperidin-4-yl)amino)benzyl)-7-phenyl-6-thia-5-azaspiro[2.5]octane 6,6-dioxide]	7.43
CC(=O)N1CCN(c2ccc(CN3C4CCCC4CC(c4ccccc4)S3(=O)=O)c(F)c2)CC1 (single isomer, unassigned) [Example 250, 1-(4-(4-((2,2-dioxido-3-phenylhexahydro-cyclopenta[c][1,2]thiazin-1(3H)-yl)methyl)-3-fluorophenyl)piper-azin-1-yl)ethanone]	7.96
CC(=O)N1CCN(c2ccc(CN3C4CCCC4CC(c4ccccc4)S3(=O)=O)c(F)c2)CC1 (single isomer, unassigned) [Example 251, 1-(4-(4-((2,2-dioxido-3-phenylhexahydro-cyclopenta[c][1,2]thiazin-1(3H)-yl)methyl)-3-fluorophenyl)piper-azin-1-yl)ethanone]	6.66
CC(=O)N1CCN(c2ccc(CN3C4CCCC4CC(c4ccccc4)S3(=O)=O)c(F)c2)CC1 (single isomer, unassigned) [Example 252, 1-(4-(4-((2,2-dioxido-3-phenylhexahydro-cyclopenta[c][1,2]thiazin-1(3H)-yl)methyl)-3-fluorophenyl)piper-azin-1-yl)ethanone]	7.17
CS(=O)(=O)N1CCC(Nc2ccc(CN3CC4(CC4)CC(c4ccccc4)S3(=O)=O)c(F)c2)CC1 (single isomer, unassigned) [Example 253, 5-(2-fluoro-4-((1-(methylsulfonyl)piperidin-4-yl)amino)benzyl)-7-phenyl-6-thia-5-azaspiro[2.5]octane 6,6-dioxide]	8.15
C[C@H]1CCC(c2ccccc2)S(=O)(=O)N1Cc1ccc(N2CCC(c3cnn[nH]3)CC2)cc1F (single isomer, unassigned) [Example 254]	8.05
C[C@H]1CCC(c2ccccc2)S(=O)(=O)N1Cc1ccc(N2CCC(c3cnn[nH]3)CC2)cc1F (single isomer, unassigned) [Example 255]	7.92
C[C@H]1CCC(c2ccccc2)S(=O)(=O)N1Cc1ccc(N2CCC(n3ccnn3)CC2)cc1F (single isomer, unassigned) [Example 256]	8.40
O=S1(=O)C(c2ccccc2)CC2(CC2)CN1Cc1ccc(N2CCC(n3cnnc3)CC2)cc1F (single isomer, unassigned) [Example 257, 5-[2-Fluoro-4-(4-[1,2,4]triazol-4-yl-piperidin-1-yl)-benzyl]-7-phenyl-6-thia-5-aza-spiro[2.5]octane 6,6-dioxde]	7.27
CC(=O)N1CCN(c2ccc(CN3CC4(COC4)CC(c4ccccc4)S3(=O)=O)c(F)c2)CC1 (single isomer, unassigned) [Example 258, 1-(4-(4-((7,7-dioxido-8-phenyl-2-oxa-7-thia-6-azaspiro[3.5]nonan-6-yl)methyl)-3-fluorophenyl)piper-azin-1-yl)ethanone]	5.98
O=S1(=O)C(c2ccccc2)CC2(CC2)CN1Cc1ccc(N2CCC(n3cnnc3)CC2)cc1F (single isomer, unassigned) [Example 259, 5-[2-Fluoro-4-(4-[1,2,4]triazol-4-yl-piperidin-1-yl)-benzyl]-7-phenyl-6-thia-5-aza-spiro[2.5]octane 6,6-dioxide]	7.24
CC(=O)N1CCN(c2ccc(CN3CC4(COC4)CC(c4ccccc4)S3(=O)=O)c(F)c2)CC1 (single isomer, unassigned) [Example 266, 1-(4-(4-((7,7-dioxido-8-phenyl-2-oxa-7-thia-6-azaspiro[3.5]nonan-6-yl)methyl)-3-fluorophenyl)piper-azin-1-yl)ethanone]	5.36
C[C@H]1CCC(c2ccccc2)S(=O)(=O)N1Cc1ccc(C(=O)NC2CCOCC2)cc1 (single isomer, unassigned) [Example 267]	5.55
CC(=O)N1CCN(c2ccc(CN3C4CC(C4)CC(c4ccccc4)S3(=O)=O)c(F)c2)CC1 (single isomer, unassigned) [Example 300, 1-{4-[4-(3,3-Dioxo-4-phenyl-3-thia-2-aza-bicyclo[4.1.1]oct-2-ylmethyl)-3-fluoro-phenyl]-piperazin-1-yl}-ethanone]	7.36
CC(=O)N1CCN(c2ccc(CN3C4CC(C4)CC(c4ccccc4)S3(=O)=O)c(F)c2)CC1 (single isomer, unassigned) [Example 301, 1-{4-[4-(3,3-Dioxo-4-pheny-3-thia-2-aza-bicyclo[4.1.1]oct-2-ylmethyl)-3-fluoro-phenyl]-piperazin-1-yl}-ethanone]	6.51
